# Test results reported in patent EP2292241A1, “A SCUTELLARIN DERIVATIVE, THE PREPARING PROCESS, THE PHARMACEUTICAL COMPOSITION AND THE USE THEREOF” (Kunming Pharmaceutical Corp., priority 2008, dated 2009).
# Columns and labels:
# [1] = system: rats with MCAO induced focal cerebral ischemia; test: focal cerebral ischemia induced by MCAO (middle cerebral artery occlusion) in rats; type: in vivo, SD rat; settings: for range of cerebral infarction: TTC stain, % of bilateral cerebral hemispheres weight; for behavior score: full score 12, higher = more severe; for rate of platelet aggregation: ADP-induced, turbidimetry; for range of cerebral infarction rate of decrease: compared with the modeling group; for indicators of coagulation APTT / indicators of coagulation FIB / indicators of coagulation PT / indicators of coagulation TT: plasma 24h after modeling
# Description: Male SD rats, weighing 240~290g, grouping and dosages were as above. Additionally, a positive control group, i.e., nimodipine 50mg/kg group was set up. Animals of each group were gavage once daily for consecutive 5 days in predetermined dosage. At 30 minute after the last administration, the animals were anesthetized with 12% chloral hydrate in 350 mg/kg via intraperitoneal injection. The animals were kept left lateral position and the skin was cut along the middle point between right ear and eye line. Temporalis was separated and cheekbone was sheared. A holl was drilled with a dental drill in front of zygomatic root and MCA was exposed. The MCA was hooked with a needle between the vein and olfactory tract in the brain, then was broke, after bleeding was stopped with a cotton ball, muscle and skin layer was sutured in layer. For the sham group, except for no breaking of MCA, other steps were same.
# The animals were scored on neurological functions at 6 hour and 24 hour after modeling, according to behavior such as movement. Such score was used as an indicator of brain dysfunction. […] The standards of grading were as follows;
# The full score of the above standards is 12. The higher the score is, the more severe the behavior disorder is.
# 24 hour after modeling and after neurological scoring, blood was taken via carotid artery intubation in duplicate. For one sample, serum was separated and the activity of AST and LDH was determined according to the method of the kit; for another sample, it was treated with 3.8% sodium citrate in 1:9 for the purpose of anticoagulation, centrifuged at 1000rpm for 5 minutes to prepare platelet rich plasma (PRP), and centrifuged at 3500rpm for 10 minutes to prepare platelet poor plasma (PPP). The rate of platelet aggregation induced by ADP-2Na was determined according to turbidimetry, the final concentration of ADP was […]; TT, PT, APTT and FIB was determined according to the method of the kit, respectively. The brain was removed quickly by decollation after blood taking, and then placed into ice cold saline solution to remove olfactory bulb, cerebellum and brainstem. The brain was weighed after water being absorbed to dryness, and then cut into 5 pieces along the coronal, placed into a 5ml solution containing 4% TTC and 0.1ml K2HPO4 (1mol/L) and incubated for 30 minutes at 37°C and in darkness. During the course every 7 to 8 minutes a turning was made. […] The infracted part was cut and weighed. The percentage of infracted tissue accounting for the total weight of bilateral cerebral hemispheres was calculated by weight area method, which was the range of cerebral infarction.
# [2] = comparative study on solubilities (China Pharmacopeia 2005 terms); type: physicochemical; settings: terms per China Pharmacopeia 2005
# Text: Table 7 Comparison on solubilities of compound A1 of the present invention and scutellarin
# [3] = toxic or adverse effect at high dosage in animal experiments; type: in vivo
# [4] = system: rats with myocardial ischemia caused by coronary artery ligation; test: myocardial ischemia caused by coronary artery ligation in rats; type: in vivo, SD rat; settings: for rate of platelet aggregation: ADP-induced, turbidimetry; for range of myocardial infarction: TTC stain, infarcted part as % of ventricle weight; for range of myocardial infarction rate of decrease: compared with the modeling group; for indicators of coagulation APTT / indicators of coagulation FIB / indicators of coagulation PT / indicators of coagulation TT: plasma 24h after ligation
# Description: Male SD rats of 330~385g were divided at random into sham group, model group, breviscapine tablet of 40mg/kg group, A1 20mg/kg group and A1 40mg/kg group. Animals of each group were gavage once daily for consecutive 5 days in predetermined dosage, for blank group and model group, the rats were given same volume of 0.5% CNC-Na in 10ml/kg body weight. At 30 minute after the last administration, the animals were anesthetized with 12% chloral hydrate in 350 mg/kg via intraperitoneal injection, then a thoracotomy was performed to render the heart exposed. The left anterior descending coronary artery was found between pulmonary artery cone and left ventricular and was ligated at 2-3mm to the root. Reposited the heart and closed the thoracic cavity. For the sham group, the suture was merely placed but not ligated.
# II lead limb ECGs before ligation and at 5min, 30 min, 1h, 2h, 4h and 24h after ligation were recorded, respectively. The change of S-T segment (J point) was measured. After 24h ECG was recorded, blood was collected in duplicate via carotid artery intubation. For one sample, serum was separated and the activity of AST, LDH and CK-MB was determined according to the method of the kit; for another sample, it was treated with 3.8% sodium citrate in 1:9 for the purpose of anticoagulation, centrifuged at 1000rpm for 5 minutes to prepare platelet rich plasma (PRP), and centrifuged at 3500rpm for 10 minutes to prepare platelet poor plasma (PPP). The rate of platelet aggregation induced by ADP-2Na was determined according to turbidimetry, the final concentration of ADP was […]; TT, PT, APTT and FIB was determined according to the method of the kit, respectively. The heart was removed quickly after blood taking, and placed into ice cold saline solution to pump out deposit blood in thoracic cavity. The atria and adipose tissue were removed, and water was adsorbed to dryness. The ventricle was weighed, cut into 5 pieces along the coronal, then incubated and stained for 10 minutes in 1% TTC solution at 37°C in darkness. […] The infracted part was cut and weighed. The percentage of infracted part accounting for the total weight of ventricle was calculated, which was the range of myocardial infarction.
# [5] = 20mg/kg, serum 24h after ligation
# [6] = 40mg/kg, serum 24h after ligation
smiles,measurement,setting,value
"COCCOC(=O)C1=C(C)NC(C)=C(C(=O)OC(C)C)C1c1cccc([N+](=O)[O-])c1 (stereo not shown) [nimodipine, reference compound]",body weight 6h after surgery,[1]; 50mg/kg,257.1 ± 11.4 g
same,body weight 24h after surgery,[1]; 50mg/kg,249.6 ± 10.5 g
same,body weight prior to surgery,[1]; 50mg/kg,265.8 ± 12.9 g
same,range of cerebral infarction,[1]; 50mg/kg gavage once daily 5 days,2.27±2.56 %
same,behavior score,"[1]; 50mg/kg, 6h after modeling",6.50±1.68
same,serum enzymes AST,"[1]; 50mg/kg, 24h after modeling",198.6±118.2 u/L
same,serum enzymes LDH,"[1]; 50mg/kg, 24h after modeling",536.7±262.8 u/L
same,behavior score,"[1]; 50mg/kg, 24h after modeling",4.83±1.40
same,rate of platelet aggregation,"[1]; 50mg/kg, 24h after modeling",54.15±7.76%
same,range of cerebral infarction rate of decrease,[1]; 50mg/kg,60.66%
same,indicators of coagulation APTT,[1]; 50mg/kg,61.02 ± 44.79 s
same,indicators of coagulation FIB,[1]; 50mg/kg,3.52 ± 1.14 g/L
same,indicators of coagulation PT,[1]; 50mg/kg,23.38 ± 8.23 s
same,indicators of coagulation TT,[1]; 50mg/kg,88.55 ± 32.24 s
O=C(O)[C@H]1O[C@@H](Oc2cc3oc(-c4ccc(O)cc4)cc(=O)c3c(O)c2O)[C@H](O)[C@@H](O)[C@@H]1O [scutellarin],solubility,[2]; 0.01N NaOH,soluble
same,solubility,[2]; 95%EtOH,slightly soluble
same,solubility,[2]; H2O,very slightly soluble
same,solubility,[2]; MeOH,slightly soluble
same,solubility,[2]; n-BuOH,slightly soluble
"COc1ccc(-c2cc(=O)c3c(OC)c(OC)c(OC4O[C@H](C(=O)O)[C@@H](O)[C@H](O)[C@H]4O)cc3o2)cc1 (stereo partly shown) [A1, 4',5,6-trimethoxylscutellarin]",body weight 6h after surgery,[1]; 20mg/kg,258.3 ± 11.9 g
same,body weight 24h after surgery,[1]; 20mg/kg,250.0 ± 15.1 g
same,body weight prior to surgery,[1]; 20mg/kg,268.8 ± 12.4 g
same,range of cerebral infarction,[1]; 20mg/kg gavage once daily 5 days,2.36±1.81 %
same,behavior score,"[1]; 20mg/kg, 6h after modeling",6.42±1.62
same,serum enzymes AST,"[1]; 20mg/kg, 24h after modeling",171.2±71.6 u/L
same,serum enzymes LDH,"[1]; 20mg/kg, 24h after modeling",571.1±287.5 u/L
same,behavior score,"[1]; 20mg/kg, 24h after modeling",4.92±1.31
same,rate of platelet aggregation,"[1]; 20mg/kg, 24h after modeling",50.52±4.07 %
same,range of cerebral infarction rate of decrease,[1]; 20mg/kg,59.10%
same,indicators of coagulation APTT,[1]; 20mg/kg,62.48 ± 29.08 s
same,indicators of coagulation FIB,[1]; 20mg/kg,3.38 ± 1.07 g/L
same,indicators of coagulation PT,[1]; 20mg/kg,25.56 ± 5.30 s
same,indicators of coagulation TT,[1]; 20mg/kg,95.55 ± 24.80 s
same,body weight 6h after surgery,[1]; 40mg/kg,253.8 ± 12.1 g
same,body weight 24h after surgery,[1]; 40mg/kg,244.2 ± 12.2 g
same,body weight prior to surgery,[1]; 40mg/kg,265.8 ± 12.4 g
same,range of cerebral infarction,[1]; 40mg/kg gavage once daily 5 days,2.04±1.43 %
same,behavior score,"[1]; 40mg/kg, 6h after modeling",5.75±1.42
same,serum enzymes AST,"[1]; 40mg/kg, 24h after modeling",152.9±33.0 u/L
same,serum enzymes LDH,"[1]; 40mg/kg, 24h after modeling",472.0±231.9 u/L
same,behavior score,"[1]; 40mg/kg, 24h after modeling",4.25±1.60
same,rate of platelet aggregation,"[1]; 40mg/kg, 24h after modeling",52.38±5.24 %
same,range of cerebral infarction rate of decrease,[1]; 40mg/kg,64.64%
same,indicators of coagulation APTT,[1]; 40mg/kg,75.15 ± 27.41 s
same,indicators of coagulation FIB,[1]; 40mg/kg,3.59 ± 0.76 g/L
same,indicators of coagulation PT,[1]; 40mg/kg,23.43 ± 8.66 s
same,indicators of coagulation TT,[1]; 40mg/kg,62.04 ± 40.80 s
same,toxic or adverse effect,[3],No toxic or adverse effect was found
same,change of S-T segment after ligation,"[4]; 20mg/kg gavage once daily 5 days, 5min after ligation",0.17±0.11 mv
same,change of S-T segment after ligation,"[4]; 20mg/kg gavage once daily 5 days, 30min after ligation",0.12±0.09 mv
same,change of S-T segment after ligation,"[4]; 20mg/kg gavage once daily 5 days, 1h after ligation",0.11±0.08 mv
same,change of S-T segment after ligation,"[4]; 20mg/kg gavage once daily 5 days, 2h after ligation",0.11±0.07 mv
same,change of S-T segment after ligation,"[4]; 20mg/kg gavage once daily 5 days, 4h after ligation",0.11±0.08 mv
same,change of S-T segment after ligation,"[4]; 20mg/kg gavage once daily 5 days, 24h after ligation",0.07±0.08 mv
same,rate of platelet aggregation,"[4]; 20mg/kg, 24h after ligation",51.20±7.41 %
same,range of myocardial infarction,[4]; 20mg/kg,3.50±2.68 %
same,range of myocardial infarction rate of decrease,[4]; 20mg/kg,45.65%
same,indicators of coagulation APTT,[4]; 20mg/kg,78.17 ± 28.14 s
same,indicators of coagulation FIB,[4]; 20mg/kg,4.77 ± 1.11 g/L
same,indicators of coagulation PT,[4]; 20mg/kg,25.90 ± 3.51 s
same,indicators of coagulation TT,[4]; 20mg/kg,92.41 ± 42.37 s
same,myocardial enzymology AST,[4]; [5],0.61±0.26 ku/L
same,myocardial enzymology CK-MB,[4]; [5],0.71±0.45 ku/L
same,change of S-T segment after ligation,"[4]; 40mg/kg gavage once daily 5 days, 5min after ligation",0.14±0.12 mv
same,change of S-T segment after ligation,"[4]; 40mg/kg gavage once daily 5 days, 30min after ligation",0.06±0.06 mv
same,change of S-T segment after ligation,"[4]; 40mg/kg gavage once daily 5 days, 1h after ligation",0.05±0.04 mv
same,change of S-T segment after ligation,"[4]; 40mg/kg gavage once daily 5 days, 2h after ligation",0.05±0.04 mv
same,change of S-T segment after ligation,"[4]; 40mg/kg gavage once daily 5 days, 4h after ligation",0.06±0.05 mv
same,change of S-T segment after ligation,"[4]; 40mg/kg gavage once daily 5 days, 24h after ligation",0.02±0.03 mv
same,rate of platelet aggregation,"[4]; 40mg/kg, 24h after ligation",48.22±5.55 %
same,range of myocardial infarction,[4]; 40mg/kg,2.52±2.16 %
same,range of myocardial infarction rate of decrease,[4]; 40mg/kg,60.87%
same,indicators of coagulation APTT,[4]; 40mg/kg,75.96 ± 35.87 s
same,indicators of coagulation FIB,[4]; 40mg/kg,3.95 ± 0.84 g/L
same,indicators of coagulation PT,[4]; 40mg/kg,25.75 ± 5.26 s
same,indicators of coagulation TT,[4]; 40mg/kg,93.04 ± 35.64 s
same,myocardial enzymology AST,[4]; [6],0.61±0.20 ku/L
same,myocardial enzymology CK-MB,[4]; [6],0.80±0.68 ku/L
same,myocardial enzymology LDH,[4]; [6],0.61±0.24 ku/L
